The structures appear in SMILES notation. Counter-ions that a name gives are not always drawn.

Molecule `CCCN1CC(O)(c2cccc(F)c2F)C1` (as salt: fumaric acid salt) [Example 1, 3-(2,3-DIFLUOROPHENYL)-1-PROPYLAZETIDIN-3-OL] showed a melting point of 161 to 165 °C. Turning to `CCCN1CC(O)(c2cc(F)cc(Cl)c2)C1` (as salt: fumaric acid salt), the melting point was in the range of 147 to 149 °C.

`CC(C)N1CC(O)(c2cc(F)cc(F)c2)C1` (as salt: fumaric acid salt): the melting point was 185 to 186 °C.

As to `CCCN1CC(O)(c2cc(F)cc(F)c2)C1` (as salt: fumaric acid salt), the melting point was 162 to 164 °C. For the molecule `CCCN1CC(O)(c2cccc(Cl)c2F)C1` (as salt: fumaric acid salt) [Example 6, 3-(3-Chloro-2-Fluorophenyl)-1-Propylazetidin-3-Ol], the melting point was in the range of 167 to 168 °C. The molecule `CCCN1CC(O)(c2ccc(F)c(F)c2)C1` (as salt: fumaric acid salt) returned a melting point of 157 to 159 °C.

Broadly, the melting point is the temperature of the solid-liquid transition.

(Values after patent US20110257148A1, “NOVEL 1-ALKYL-3-HYDROXY-3-PHENYLAZETIDINE DERIVATIVES USEFUL AS MODULATORS OF CORTICAL CATECHOLAMINERGIC NEUROTRANSMISSION” (NSAB, FILIAL AF N[…] AB, SVERIGE, priority 2008, published 2011).)
